Experimental data as given in PubChem BioAssay AID1259411 (Chemical Carcinogenesis Research Information System (CCRIS), 2018).
Calls of active or inactive are those of the source. The rule behind the calls is not given here.

Tested on: rodent carcinogenicity bioassays, tumor incidence
Assay: CCRIS carcinogenicity studies
Conditions: Dose: 0, Dose: 0
Outline: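 Archive of carcinogenicity, mutagenicity, tumor promotion and tumor inhibition results drawn from journals, NCI reports and other sources, expert-reviewed; covers 1985-2011 and is no longer updated.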

SMILES	carcinogen call (Species: MOUSE, Strain/Sex: B6C3F1/FEMALE, Route: ORAL, 5000, 10000 PPM IN DIET FOR 104 WK (STUDY DURATION: 105 WK), 5000, 10000 PPM IN DIET FOR 104 WK (STUDY DURATION: 105 WK))	carcinogen call (Species: MOUSE, Strain/Sex: B6C3F1/MALE, Route: ORAL, 5000, 10000 PPM IN DIET FOR 104 WK (STUDY DURATION: 105 WK), 5000, 10000 PPM IN DIET FOR 104 WK (STUDY DURATION: 105 WK), Tumor Site: Type of Lesion: LIVER: HEPATOCELLULAR CARCINOMA)	carcinogen call (Species: Mouse, Strain/Sex: CD-1/Female (50/group), Route: Oral, 300, 3,000, 6,000, 10,000 ppm in diet for 2 yr, 300, 3,000, 6,000, 10,000 ppm in diet for 2 yr, Tumor Site: Type of Lesion: Uterus: at 10,000 ppm)	carcinogen call (Species: Mouse, Strain/Sex: CD-1/Male (50/group), Route: Oral, 300, 3,000, 6,000, 10,000 ppm in diet for 2 yr, 300, 3,000, 6,000, 10,000 ppm in diet for 2 yr, Tumor Site: Type of Lesion: Vascular tumor: hemangioma and hemangiosarcoma in liver at 10,000 ppm)	carcinogen call (Species: Mouse, Strain/Sex: Swiss/Male and Female (100/group in controls; 50/group in treated group), Route: Oral, 2% in drinking water (3000 mg/kg/day), 0.003% UDMH (40 ppm impurity) for 2 yr, 2% in drinking water (3000 mg/kg/day), 0.003% UDMH (40 ppm impurity) for 2 yr, Tumor Site: Type of Lesion: Lung: adenomas and adenocarcinomas Vascular tumor: hemangioma and hemangiosarcoma predominantly in liver)	carcinogen call (Species: RAT, Strain/Sex: F344/FEMALE, Route: ORAL, 5000, 10000 PPM IN DIET FOR 104 WK (STUDY DURATION: 105 WK), 5000, 10000 PPM IN DIET FOR 104 WK (STUDY DURATION: 105 WK), Tumor Site: Type of Lesion: ENDOMETRIUM: ADENOCARCINOMA, UTERUS: LEIOMYOSARCOMA)	carcinogen call (Species: RAT, Strain/Sex: F344/MALE, Route: ORAL, 5000, 10000 PPM IN DIET FOR 104 WK (STUDY DURATION: 105 WK), 5000, 10000 PPM IN DIET FOR 104 WK (STUDY DURATION: 105 WK))	carcinogen call (Species: Rat, Strain/Sex: Fischer 344/Female (50/group), Route: Oral, 1, 50, 100 ppm in diet for 2 yr, 1, 50, 100 ppm in diet for 2 yr, Tumor Site: Type of Lesion: Liver: increase at 50 and 100 ppm (incidence not reported by CADPR) Uterus: Adenocarcinoma (0, 0, 0, 2))	carcinogen call (Species: Rat, Strain/Sex: Fischer 344/Female (50/group), Route: Oral, 100, 500, 5,000, 10,000 ppm in diet for 2 yr, 100, 500, 5,000, 10,000 ppm in diet for 2 yr, Tumor Site: Type of Lesion: Uterus: Adenocarcinoma (0, 1, 2, 1, 1), Leiomyocarcinoma (0, 0, 0, 2, 1))	carcinogen call (Species: Rat, Strain/Sex: Fischer 344/Male (50/group), Route: Oral, 100, 500, 5,000, 10,000 ppm in diet for 2 yr, 100, 500, 5,000, 10,000 ppm in diet for 2 yr)	carcinogen call (Species: MOUSE, Strain/Sex: SWISS/FEMALE, Route: ORAL, 2.5, 5, 10% IN DIET FOR LIFE (PARENTS FED DIETS BEFORE AND AFTER PREGNANCY AND DURING LACTATION) (STUDY DURATION: 104, 2.5, 5, 10% IN DIET FOR LIFE (PARENTS FED DIETS BEFORE AND AFTER PREGNANCY AND DURING LACTATION) (STUDY DURATION: 104)	carcinogen call (Species: MOUSE, Strain/Sex: SWISS/MALE, Route: ORAL, 2.5, 5, 10% IN DIET FOR LIFE (PARENTS FED DIETS BEFORE AND AFTER PREGNANCY AND DURING LACTATION) (STUDY DURATION: 94, 2.5, 5, 10% IN DIET FOR LIFE (PARENTS FED DIETS BEFORE AND AFTER PREGNANCY AND DURING LACTATION) (STUDY DURATION: 94)	carcinogen call (Species: RAT, Strain/Sex: WISTAR/FEMALE, Route: ORAL, 2.5, 5, 10% IN DIET FOR LIFE (PARENTS FED DIETS BEFORE AND AFTER PREGNANCY AND DURING LACTATION) (STUDY DURATION: 130, 2.5, 5, 10% IN DIET FOR LIFE (PARENTS FED DIETS BEFORE AND AFTER PREGNANCY AND DURING LACTATION) (STUDY DURATION: 130)	carcinogen call (Species: RAT, Strain/Sex: WISTAR/MALE, Route: ORAL, 2.5, 5, 10% IN DIET FOR LIFE (PARENTS FED DIETS BEFORE AND AFTER PREGNANCY AND DURING LACTATION) (STUDY DURATION: 128, 2.5, 5, 10% IN DIET FOR LIFE (PARENTS FED DIETS BEFORE AND AFTER PREGNANCY AND DURING LACTATION) (STUDY DURATION: 128)
CN(C)NC(=O)CCC(=O)O	inactive; negative	equivocal	equivocal	equivocal	equivocal, incidence of lung tumors may be from udmh.	active; positive	inactive; negative	equivocal, ca dpr described results as providing marginal evidence of treatment	equivocal, ca dpr noted rarity of the tumors but that mtd not achieved	inactive; negative	–	–	–	–
OC[C@@H](O)[C@@H](O)[C@H](O)[C@H](O)CO[C@H]1O[C@H](CO)[C@@H](O)[C@H](O)[C@H]1O	–	–	–	–	–	–	–	–	–	–	inactive; negative	inactive; negative	inactive; negative	inactive; negative
